These are literature values, as cited in patent US20040147461A1, “Motilide compounds” (priority 2000, published 2004).

The conditions of series [1]: statement in words.
Series [2] addresses motilin receptor (Homo sapiens, UniProt O43193). Conditions: statement in words.

motilin receptor, sequence (O43193 whole entry, species assumed): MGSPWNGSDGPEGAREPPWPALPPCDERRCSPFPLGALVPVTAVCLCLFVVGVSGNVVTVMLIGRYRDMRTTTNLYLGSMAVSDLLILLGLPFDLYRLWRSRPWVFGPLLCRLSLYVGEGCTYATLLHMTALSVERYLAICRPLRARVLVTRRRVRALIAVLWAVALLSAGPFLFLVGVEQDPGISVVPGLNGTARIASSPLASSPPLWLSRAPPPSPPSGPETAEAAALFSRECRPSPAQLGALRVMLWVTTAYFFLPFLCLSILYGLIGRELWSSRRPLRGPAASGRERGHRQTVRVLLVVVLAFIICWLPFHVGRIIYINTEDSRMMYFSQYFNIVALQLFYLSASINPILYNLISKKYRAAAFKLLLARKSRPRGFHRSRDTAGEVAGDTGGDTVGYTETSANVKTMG

Take `CC[C@H]1OC(=O)[C@H](C)[C@@H](O[C@H]2C[C@@](C)(OC)[C@@H](O)[C@H](C)O2)[C@H](C)[C@@H](O[C@@H]2O[C@H](C)C[C@H](N(C)C)[C@H]2O)[C@@]2(C)CC(C)=C(O2)[C@H](C)[C@@H](O)[C@]1(C)O` [enol ether, 8,9-anhydroerythromycin A 6,9-hemiacetal]: the antimicrobial activity entry in series [1] was “does not also posses antimicrobial activity”.

Turning to `CC[C@H]1OC(=O)[C@H](C)[C@@H](O[C@H]2C[C@@](C)(OC)[C@@H](O)[C@H](C)O2)[C@H](C)[C@@H](O[C@@H]2O[C@H](C)C[C@H](N(C)C)[C@H]2O)[C@](C)(O)C[C@@H](C)C(=O)[C@H](C)[C@@H](O)[C@]1(C)O` [erythromycin A], in series [2], the motilin agonist activity entry is on record as “motilin agonists”.
